# Data taken from ChEMBL document CHEMBL1133036, “Diacylglycerols with lipophilically equivalent branched acyl chains display high affinity for protein kinase C (PK-C). A direct measure of the effect of constraining the glycerol backbone in DAG lactones” (Bioorg Med Chem Lett, 2000).
# Test: Partition coefficient (logD)
# Assay type: physicochemical
# Details: octanol/water
row,logD,SMILES
1,5,CCCCCCCC(=O)OC[C@H](CO)OC(=O)CCCCCCC
2,5,CC(C)C(CC(=O)OC[C@H](CO)OC(=O)CC(C(C)C)C(C)C)C(C)C
3,7,CCCCCCCC/C=C/CCCCCCCC(=O)O[C@@H](CO)COC(C)=O [AUTONOM NAME:]

# More lines, now with the values behind:
row,SMILES,logD
1,CC(C)(C)C(=O)OCC(CO)OC(=O)C(C)(C)C (stereo unspecified),2
2,O=C(OC[C@H](CO)OC(=O)C12CC3CC(CC(C3)C1)C2)C12CC3CC(CC(C3)C1)C2,5
3,CC(C)C(C/C=C1/CC(CO)(COC(=O)CC(C(C)C)C(C)C)OC1=O)C(C)C (stereo unspecified),5
